Assay results taken from patent publication US20240100081A1, “COMPOSITIONS AND METHODS FOR TREATING AGE-RELATED MACULAR DEGENERATION AND GEOGRAPHIC ATROPHY” (University of Virginia Patent Foundation, priority 2017, published 2024).

Assays:
[1] = test system: IL-18; assay: IL-18 secretion ELISA, mouse RPE cells; format: cell-based; settings: Casp11−/− and Mb21d1−/− mouse RPE cells; LPS-primed, MSU 250 μg/ml
Procedure: Secreted human and mouse interferon-β and IL-18 in the media were detected using the ELISA kits (mouse IFN-β, R&D Systems Cat #42400-1; mouse IL-18, R&D Systems Cat #7625; human IFN-β, R&D Systems Cat #41410; human IL-18, R&D systems Cat #DY318-05) according to the manufacturer's instructions. Primary mouse cells cultured as above. WT, Gsdmd^−/−, Casp11^−/−, and Mb21d1^−/− mouse RPE cells were seeded at a density of 250,000 cells/well in a 12-well plate. When confluency reached 60-70%, cells were transfected with 20 pmol of in vitro transcribed Alu RNA or mock using Lipofectamine 2000 reagent (Life Technologies, Carlsbad, CA) following the manufacturer protocol. Media was collected to detect secreted cytokine content at 8 to 24 h post-transfection. For examining the induction of IL-18 secretion by monosodium urate (MSU) crystals (Invivogen Cat #tlrl-msu), mouse RPE cells were primed with LPS (500 ng/ml) for 6 h and exposed to MSU (250 μg/ml) for 16 h, and media were collected to detect secreted cytokine.

[2] = test system: RPE; settings: earlier demonstration (refs 2, 21); cited from earlier work
[3] = test system: IFNB mRNA; assay: IFNB mRNA real-time PCR, human RPE cells; format: cell-based; settings: lentiviral shRNA
Procedure: Real-time PCR Total RNA purified from cell using Trizol reagent (Invitrogen) following manufacturer's recommendation was DNase treated and reverse transcribed using […]® Reverse Transcription kit (QIAGEN). The RT products (cDNA) were amplified by real-time quantitative PCR (Applied Biosystems 7900 HT Fast Real-Time PCR system) with Power SYBR green Master Mix. Relative gene expression was determined by 2^−ΔΔCt t method using 18S rRNA or GAPDH as internal control. Primers were used as described in the provisional patent application from which this application depends and as in Kerur et al., 2018, Nature, the publication resulting from the data in the provisional application. The primers were for human IFNB1, CASP4, DICER, cGAS, 18s rRNA, mitochondrial DNA, GAPDH, and GSDMD, MIP1α, IL6, IL8, and mouse Ifnb1, Gapdh, 18s rRNA, and mitochondrial DNA.
Lentivirus articles were either produced by the University of Kentucky Viral Production Core facilities or in house. Lentivirus vector plasmids expressing scrambled sequences or shRNA sequences targeting human caspase-4 and cGAS were purchased (MISSION®shRNA, Sigma-Aldrich) to produce lentiviral particles. Human RPE cells at passage 3 were incubated with lentiviral particles at multiplicity of infection (MOI) of 5 overnight in regular growth media containing polybrene (4 μg/ml). […] Knockdown of the target proteins was determined by immunoblotting.

[4] = test system: STAT2; assay: STAT2 phosphorylation immunoblot, human RPE cells; format: cell-based; settings: lentiviral shRNA
Procedure: (§1) Cell and tissue lysates prepared in RIPA buffer where homogenized by sonication. Protein concentration was determined using Pierce BCA Protein Assay Kit (Thermo Fisher Scientific Inc.). Equal quantity of protein (10-50 μg) prepared in Laemmli buffer were resolved by SDS-PAGE on NOVEX® Tris-Glycine Gels (Invitrogen), and transferred onto Immobilon-FL PVDF membranes (Millipore). The transferred membranes were blocked in ODYSSEY® Blocking Buffer (PBS) or 5% nonfat dry skim milk for 1 hour at RT and then incubated with primary antibody at 4° C. overnight. The immunoreactive bands were visualized with help of species specific secondary antibodies conjugated with IRDYE® or HRP. The blot image were either captured on ODYSSEY® imaging systems or on an autoradiography film. […]

[5] = test system: caspase-1; assay: Caspase-1 activation (p20) immunoblot in human RPE cells; format: cell-based; settings: lentiviral shRNA
Procedure: as §1
Lentivirus articles were either produced by the University of Kentucky Viral Production Core facilities or in house. […] Knockdown of the target proteins was determined by immunoblotting.

[6] = test system: caspase-4; assay: Caspase-4 activation (p30) immunoblot in human RPE cells; format: cell-based; settings: lentiviral shRNA
Procedure: as §1

[7] = target: T1, cGAS (Mus musculus, UniProt Q8C6L5); assay: cGAS-mtDNA interaction immunoprecipitation assay (HA-cGAS MEFs); format: cell-based; settings: HA-cGAS reconstituted Mb21d1−/− MEFs
T1 construct: expressed in transfected cells
From the text: Immortalized cGAS^−/− mouse embryonic fibroblasts (MEF) reconstituted with HA-tagged mouse cGAS (HA-cGAS) were described earlier^28. Interaction between mtDNA and cGAS was monitored using Express Chromatin Immunoprecipitation Kit (Active Motif, CHIP-IT® Express, cat #53008). Briefly mock, Alu RNA, poly I: C or plasmid DNA (pUC19) transfected HA-cGAS reconstituted cGAS^−/− MEFs were fixed with 1% formaldehyde per manufacturer's instructions. The cells were then lysed by sonication in the shearing buffer, centrifuged for 10 min at 18,000 g in a 4° C. microfuge. The supernatant containing the cell lysate was collected and cGAS was immunoprecipitated from each sample using anti-HA tag antibody (Abcam, cat #ab9110). DNA in the IP was eluted, reverse crosslinked and purified using Chromatin IP DNA Purification Kit (Active Motif, cat #58002). Purified DNA was analyzed by qPCR using mouse mtDNA specific primer pairs.

[8] = test system: RPE; assay: RPE flat mount annexin V/PI staining in mice; settings: Alu RNA-treated Gsdmd−/− mice
[9] = test system: RPE; assay: Alu-induced RPE degeneration in mice (subretinal injection; fundus photography, ZO-1 flat mounts); format: in vivo, mouse; settings: Gsdmd−/− mice
Procedure: Alu-mediated RPE degeneration was induced by exposing mice to Alu RNA as previously described^14-18. Seven days later, RPE health was assessed by fundus photography and immunofluorescence staining of zonula occludens-1 (ZO-1) on RPE flat mounts (whole mount of posterior eye cup containing RPE and choroid layers). Mouse RPE and choroid flat mounts were fixed with 4% paraformaldehyde or 100% methanol, stained with rabbit polyclonal antibodies against mouse ZO-1 (1:100, Invitrogen), and visualized with Alexa-594 (Invitrogen). All images were obtained by microscopy (model SP-5, Leica; or Axio Observer Z1, Zeiss). Imaging was performed by an operator masked to the group assignments.
Binary Assignment: Healthy RPE cells form a polygonal tessellation with a principally hexagonal “honeycomb” formation. RPE degeneration was assessed as a disruption of this uniformity of this polygonal sheet. Thus, RPE health was assessed as the presence or absence of morphological disruption in RPE flat mounts by two independent raters who were masked to the group assignments. […] Inter-rater reliability was measured by agreement on assignments, Pearson coefficient of determination, and Fleiss κ. […]
Cellular Morphometry: Quantifying cellular morphometry for hexagonally packed cells was performed in semi-automated fashion by three masked graders by adapting our previous analysis of corneal endothelial cell density^19. […]

T1 sequence (Q8C6L5 whole entry): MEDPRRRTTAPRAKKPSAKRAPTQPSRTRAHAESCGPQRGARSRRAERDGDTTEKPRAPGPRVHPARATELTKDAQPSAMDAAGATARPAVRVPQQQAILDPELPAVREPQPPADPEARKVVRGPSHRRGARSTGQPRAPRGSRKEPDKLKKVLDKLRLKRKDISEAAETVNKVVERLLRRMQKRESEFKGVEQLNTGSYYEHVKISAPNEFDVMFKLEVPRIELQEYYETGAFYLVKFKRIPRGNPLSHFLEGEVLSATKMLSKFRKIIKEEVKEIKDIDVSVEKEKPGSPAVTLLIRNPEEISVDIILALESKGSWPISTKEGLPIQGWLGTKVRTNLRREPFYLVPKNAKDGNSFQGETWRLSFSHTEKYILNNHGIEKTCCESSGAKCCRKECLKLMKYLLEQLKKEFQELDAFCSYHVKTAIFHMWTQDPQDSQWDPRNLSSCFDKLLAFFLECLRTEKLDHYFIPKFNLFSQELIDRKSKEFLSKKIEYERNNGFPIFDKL

Which IL-18 secretion [1] does the source give for `O=c1[nH]c(=O)c2[nH]c([O-])nc2[nH]1.[Na+]` [MSU, monosodium urate] here?
Its IL-18 secretion is “unaffected”.

With `NCC(=O)O` [glycine] as the compound, how does the “effect on Alu RNA-induced RPE degeneration” value [2] read?
The value was “neither necrostatin-1, an inhibitor of primary necrosis^39, nor glycine, an inhibitor of pyroptosis^40, blocks”.

For `CN1C(=O)C(Cc2c[nH]c3ccccc23)NC1=S` (stereo not shown) [necrostatin-1], which “effect on Alu RNA-induced RPE degeneration” value [2] is on record?
Its value is “neither necrostatin-1, an inhibitor of primary necrosis^39, nor glycine, an inhibitor of pyroptosis^40, blocks”.

For “cGAS shRNA: shRNA against cGAS, Sigma-Aldrich TRCN0000150010, SEQ ID NO: 15 (guide CCGGCCTGCTGTAACACTTCTTATTCTCGAGAATAAGAAGTGTTACAGCAGGTTTTTTG; listed as Homo sapiens)”, which “effect on DICER1 AS-induced IFNB mRNA” value [3] is on record?
The value was “markedly depressed”.

What about the “effect on Alu RNA-induced phosphorylation of STAT2” value [4] of the same compound?
Its value is “suppressed”.

And the “effect on Alu RNA-induced activation of caspase-1 (p20 subunit)” value [5]?
Its value is “suppressed”.

What about the “effect on Alu RNA-induced activation of caspase-4 (p30 subunit)” value [6] of the same compound?
The value was “suppressed”.

With poly(I:C) as the compound, how does the “enrichment of mtDNA in cGAS immunoprecipitate” value [7] read?
Its value is “not”.

What does the source list for “recIL-18: recombinant mature IL-18 (MBL Cat #B002-5)”?
annexin-V / PI staining of RPE flat mounts [8]: numerous annexin-V^+ PI^− cells; resistance to Alu RNA-induced RPE degeneration [9]: overcome
